This is an account of results in patent US11339161B2, “Triazolo pyridines as modulators of gamma-secretase” (Boehringer Ingelheim International GmbH, priority 2017, dated 2022).

By inhibition is commonly meant the change of the read-out against control, counted positive when it falls.

One assay has as its target FLT4 (VEGFR3) (Homo sapiens, UniProt P35916). Briefly: Z'-LYTE SelectScreen biochemical kinase assay FLT4 (VEGFR3). The source says: (§1) Thermo Fisher Scientific SelectScreen™ Biochemical Kinase Profiling Service Z′-LYTE™ Screening Protocol and Assay Conditions Assay Theory
(§2) The […] biochemical assay employs a fluorescence-based, coupled-enzyme format and is based on the differential sensitivity of phosphorylated and non-phosphorylated peptides to proteolytic cleavage. The peptide substrate is labeled with two fluorophores—one at each end—that make up a FRET pair. In the primary reaction, the kinase transfers the gamma-phosphate of ATP to a single tyrosine, serine or threonine residue in a synthetic FRET-peptide. In the secondary reaction, a site-specific protease recognizes and cleaves non-phosphorylated FRET-peptides. Phosphorylation of FRET-peptides suppresses cleavage by the Development Reagent. Cleavage disrupts FRET between the donor (i.e., coumarin) and acceptor (i.e., fluorescein) fluorophores on the FRET-peptide, whereas uncleaved, phosphorylated FRET-peptides maintain FRET. A ratiometric method, which calculates the ratio (Emission Ratio=Coumarin emission (445 nm)/Fluorescein emission (520 nm)) of donor emission to acceptor emission after excitation of the donor fluorophore at 400 nm, is used to quantitate reaction progress, as shown in the equation below. A significant benefit of this ratiometric method for quantitating reaction progress is the elimination of well-to-well variations in FRET-peptide concentration and signal intensities. As a result, the assay yields very high Z′-factor values (>0.7) at a low percent phosphorylation. Both cleaved and uncleaved FRET-peptides contribute to the fluorescence signals and therefore to the Emission Ratio. The extent of phosphorylation of the FRET-peptide can be calculated from the Emission Ratio. The Emission Ratio will remain low if the FRET-peptide is phosphorylated (i.e., no kinase inhibition) and will be high if the FRET-peptide is non-phosphorylated (i.e., kinase inhibition).
(§3) The Test Compounds are screened in 1% DMSO (final) in the well. For 10 point titrations, 3-fold serial dilutions are conducted from the starting concentration of the customer's choosing.
(§4) All Peptide/Kinase Mixtures are diluted to a 2× working concentration in the appropriate Kinase Buffer (see section Kinase Specific Assay Conditions for a complete description).
(§5) All ATP Solutions are diluted to a 4× working concentration in Kinase Buffer (50 mM HEPES pH 7.5, 0.01% BRIJ-35, 10 mM MgCl2, 1 mM EGTA). ATP Km apparent is previously determined using a Z″-LYTE assay.
(§6) The Development Reagent is diluted in Development Buffer (see section Kinase-Specific Assay Conditions—Direct and Cascade for a complete description).
(§7) Bar-coded Corning, low volume NBS, black 384-well plate (Corning Cat. #4514) • 1. 100 nL—100× Test Compound in 100% DMSO • 2. 2.4 μL—Kinase buffer • 3. 5 μL—2× Peptide/Kinase Mixture • 4. 2.5 μL—4×ATP Solution • 5. 30—second plate shake • 6. 60—minute Kinase Reaction incubation at room temperature • 7. 5 μL—Development Reagent Solution • 8. 30—second plate shake • 9. 60—minute Development Reaction incubation at room temperature • 10. Read on fluorescence plate reader and analyze the data Z′-LYTE Assay Controls
(§8) SelectScreen Kinase Profiling Service uses XLfit from IDBS. The dose response curve is curve fit to model number 205 (sigmoidal dose-response model).
The 2×FLT4 (VEGFR3)/Tyr 04 mixture is prepared in 50 mM HEPES pH 7.5, 0.01% BRIJ-35, 10 mM MgCl2, 4 mM MnCl2, 1 mM EGTA, 2 mM DTT. The final 10 μL Kinase Reaction consists of 2-10.5 ng FLT4 (VEGFR3) and 2 μM Tyr 04 in 50 mM HEPES pH 7.5, 0.01% BRIJ-35, 10 mM MgCl2, 2 mM MnCl2, 1 mM EGTA, 1 mM DTT. After the 1 hour Kinase Reaction incubation, 5 μL of a 1:64 dilution of Development Reagent B is added.

A further assay deals with LYN B (Homo sapiens, UniProt P07948). Description: Z'-LYTE SelectScreen biochemical kinase assay LYN B.
Excerpt: as §1, §2, §3, §4, §5, §6, §7, §8
The 2×LYN B/Tyr 02 mixture is prepared in 50 mM HEPES pH 7.5, 0.01% BRIJ-35, 10 mM MgCl2, 1 mM EGTA. The final 10 μL Kinase Reaction consists of 0.85-14.8 ng LYN B and 2 μM Tyr 02 in 50 mM HEPES pH 7.5, 0.01% BRIJ-35, 10 mM MgCl2, 1 mM EGTA. After the 1 hour Kinase Reaction incubation, 5 μL of a 1:128 dilution of Development Reagent A is added.

For the next assay, the target named is PTK2 (FAK) (Homo sapiens, UniProt Q05397). Description: Z'-LYTE SelectScreen biochemical kinase assay PTK2 (FAK).
Excerpt: as §1, §2, §3, §4, §5, §6, §7, §8
The 2×PTK2 (FAK)/Tyr 07 mixture is prepared in 50 mM HEPES pH 7.5, 0.01% BRIJ-35, 10 mM MgCl2, 1 mM EGTA. The final 10 μL Kinase Reaction consists of 12.5-100 ng PTK2 (FAK) and 2 μM Tyr 07 in 50 mM HEPES pH 7.5, 0.01% BRIJ-35, 10 mM MgCl2, 1 mM EGTA. After the 1 hour Kinase Reaction incubation, 5 μL of a 1:16 dilution of Development Reagent B is added.

A further assay addresses RET (Homo sapiens, UniProt P07949). Briefly: Z'-LYTE SelectScreen biochemical kinase assay RET.
Excerpt: as §1, §2, §3, §4, §5, §6, §7, §8
The 2×RET/Tyr 02 mixture is prepared in 50 mM HEPES pH 7.5, 0.01% BRIJ-35, 10 mM MgCl2, 1 mM EGTA. The final 10 μL Kinase Reaction consists of 0.49-3.64 ng RET and 2 μM Tyr 02 in 50 mM HEPES pH 7.5, 0.01% BRIJ-35, 10 mM MgCl2, 1 mM EGTA. After the 1 hour Kinase Reaction incubation, 5 μL of a 1:128 dilution of Development Reagent A is added.

The mark [1] stands for this setting: 10 μmolar compound concentration, ATP at Km app, read-out: FLT4 (VEGFR3) inhibition.
Where [2] appears, read: read-out: % Inhibition mean FLT4 (VEGFR3).
[3] abbreviates: 10 μmolar compound concentration, ATP at Km app, read-out: LYN B inhibition.
Where [4] appears, read: read-out: % Inhibition mean LYN B.
Setting [5] is: 10 μmolar compound concentration, ATP at Km app, read-out: PTK2 (FAK) inhibition.
The mark [6] stands for this setting: read-out: % Inhibition mean PTK2 (FAK).
[7] abbreviates: 10 μmolar compound concentration, ATP at Km app, read-out: RET inhibition.
The mark [8] stands for this setting: read-out: % Inhibition mean RET.

Read-outs that look alike come from different tables or passages of the source.

PTK2 (FAK), sequence (Q05397 whole entry): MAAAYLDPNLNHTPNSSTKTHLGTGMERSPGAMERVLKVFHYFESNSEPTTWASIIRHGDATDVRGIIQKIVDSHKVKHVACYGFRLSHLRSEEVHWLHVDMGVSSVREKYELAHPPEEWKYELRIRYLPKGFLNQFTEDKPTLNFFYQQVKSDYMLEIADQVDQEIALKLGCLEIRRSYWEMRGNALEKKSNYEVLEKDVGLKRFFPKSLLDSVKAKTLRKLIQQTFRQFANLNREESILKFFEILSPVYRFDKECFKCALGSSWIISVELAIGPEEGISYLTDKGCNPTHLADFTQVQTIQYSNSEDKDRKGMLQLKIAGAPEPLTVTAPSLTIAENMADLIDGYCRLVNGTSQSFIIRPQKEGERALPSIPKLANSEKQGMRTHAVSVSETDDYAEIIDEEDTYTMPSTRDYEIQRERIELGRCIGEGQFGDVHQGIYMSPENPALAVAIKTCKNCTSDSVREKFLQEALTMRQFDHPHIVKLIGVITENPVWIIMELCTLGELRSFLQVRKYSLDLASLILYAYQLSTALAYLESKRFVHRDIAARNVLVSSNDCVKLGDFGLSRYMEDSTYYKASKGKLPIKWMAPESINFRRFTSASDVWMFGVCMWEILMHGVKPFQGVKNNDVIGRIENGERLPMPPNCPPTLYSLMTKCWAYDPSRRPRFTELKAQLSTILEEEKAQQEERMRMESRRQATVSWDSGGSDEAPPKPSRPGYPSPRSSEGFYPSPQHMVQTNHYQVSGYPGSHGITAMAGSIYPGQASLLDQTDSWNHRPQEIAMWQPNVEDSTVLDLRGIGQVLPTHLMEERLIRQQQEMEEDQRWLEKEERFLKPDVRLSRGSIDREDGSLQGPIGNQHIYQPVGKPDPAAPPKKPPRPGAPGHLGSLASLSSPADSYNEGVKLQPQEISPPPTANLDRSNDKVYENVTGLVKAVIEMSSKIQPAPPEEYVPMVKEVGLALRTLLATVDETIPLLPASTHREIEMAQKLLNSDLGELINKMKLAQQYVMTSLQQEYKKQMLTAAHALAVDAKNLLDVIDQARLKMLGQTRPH
FLT4 (VEGFR3), sequence (P35916 25-1363): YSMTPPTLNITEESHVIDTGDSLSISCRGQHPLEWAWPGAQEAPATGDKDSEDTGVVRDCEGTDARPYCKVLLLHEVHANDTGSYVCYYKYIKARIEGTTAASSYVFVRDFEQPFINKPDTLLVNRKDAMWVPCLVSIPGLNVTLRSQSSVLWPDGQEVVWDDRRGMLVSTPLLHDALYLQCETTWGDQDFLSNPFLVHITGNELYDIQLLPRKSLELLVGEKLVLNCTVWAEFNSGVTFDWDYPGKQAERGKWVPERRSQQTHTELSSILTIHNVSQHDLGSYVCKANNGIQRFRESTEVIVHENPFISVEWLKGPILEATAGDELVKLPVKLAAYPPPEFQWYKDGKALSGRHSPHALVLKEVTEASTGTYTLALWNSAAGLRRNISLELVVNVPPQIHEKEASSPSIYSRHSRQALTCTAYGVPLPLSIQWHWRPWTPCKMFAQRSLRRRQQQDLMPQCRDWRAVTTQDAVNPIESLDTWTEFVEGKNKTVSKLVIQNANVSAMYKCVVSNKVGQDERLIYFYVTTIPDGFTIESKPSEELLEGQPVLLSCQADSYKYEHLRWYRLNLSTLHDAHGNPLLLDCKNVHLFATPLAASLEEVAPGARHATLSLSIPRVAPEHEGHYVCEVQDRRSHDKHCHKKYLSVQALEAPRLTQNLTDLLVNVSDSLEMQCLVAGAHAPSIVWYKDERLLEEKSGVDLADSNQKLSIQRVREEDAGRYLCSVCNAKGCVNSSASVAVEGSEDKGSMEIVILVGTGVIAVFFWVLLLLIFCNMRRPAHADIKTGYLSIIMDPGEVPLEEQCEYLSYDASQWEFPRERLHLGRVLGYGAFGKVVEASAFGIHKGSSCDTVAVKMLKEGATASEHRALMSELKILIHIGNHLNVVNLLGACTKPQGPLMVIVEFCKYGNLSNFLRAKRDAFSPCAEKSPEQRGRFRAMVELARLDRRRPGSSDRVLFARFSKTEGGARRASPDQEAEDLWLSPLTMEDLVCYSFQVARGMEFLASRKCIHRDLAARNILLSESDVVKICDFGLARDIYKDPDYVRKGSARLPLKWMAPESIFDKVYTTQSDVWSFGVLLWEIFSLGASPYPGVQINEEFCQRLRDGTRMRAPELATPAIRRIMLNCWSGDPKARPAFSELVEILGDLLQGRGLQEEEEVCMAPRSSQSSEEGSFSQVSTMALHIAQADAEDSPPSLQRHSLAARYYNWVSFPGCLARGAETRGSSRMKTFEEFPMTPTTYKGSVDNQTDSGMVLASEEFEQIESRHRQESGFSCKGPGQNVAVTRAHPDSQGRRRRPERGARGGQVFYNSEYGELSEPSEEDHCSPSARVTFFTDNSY
LYN B, sequence (P07948 1-491 isoform P07948-2): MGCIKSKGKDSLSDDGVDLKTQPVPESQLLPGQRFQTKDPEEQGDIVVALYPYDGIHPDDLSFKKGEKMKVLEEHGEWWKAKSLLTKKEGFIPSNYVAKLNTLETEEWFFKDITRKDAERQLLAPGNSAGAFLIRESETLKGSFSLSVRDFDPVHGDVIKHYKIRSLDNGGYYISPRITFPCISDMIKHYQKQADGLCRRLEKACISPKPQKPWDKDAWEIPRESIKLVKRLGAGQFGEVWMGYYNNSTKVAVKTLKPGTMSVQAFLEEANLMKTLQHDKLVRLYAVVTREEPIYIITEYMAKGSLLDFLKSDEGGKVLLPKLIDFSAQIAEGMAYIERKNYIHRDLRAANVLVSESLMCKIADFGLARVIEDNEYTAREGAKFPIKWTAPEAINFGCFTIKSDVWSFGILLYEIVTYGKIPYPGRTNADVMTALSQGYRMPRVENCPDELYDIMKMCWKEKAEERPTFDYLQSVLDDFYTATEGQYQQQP
RET, sequence (P07949 29-1114): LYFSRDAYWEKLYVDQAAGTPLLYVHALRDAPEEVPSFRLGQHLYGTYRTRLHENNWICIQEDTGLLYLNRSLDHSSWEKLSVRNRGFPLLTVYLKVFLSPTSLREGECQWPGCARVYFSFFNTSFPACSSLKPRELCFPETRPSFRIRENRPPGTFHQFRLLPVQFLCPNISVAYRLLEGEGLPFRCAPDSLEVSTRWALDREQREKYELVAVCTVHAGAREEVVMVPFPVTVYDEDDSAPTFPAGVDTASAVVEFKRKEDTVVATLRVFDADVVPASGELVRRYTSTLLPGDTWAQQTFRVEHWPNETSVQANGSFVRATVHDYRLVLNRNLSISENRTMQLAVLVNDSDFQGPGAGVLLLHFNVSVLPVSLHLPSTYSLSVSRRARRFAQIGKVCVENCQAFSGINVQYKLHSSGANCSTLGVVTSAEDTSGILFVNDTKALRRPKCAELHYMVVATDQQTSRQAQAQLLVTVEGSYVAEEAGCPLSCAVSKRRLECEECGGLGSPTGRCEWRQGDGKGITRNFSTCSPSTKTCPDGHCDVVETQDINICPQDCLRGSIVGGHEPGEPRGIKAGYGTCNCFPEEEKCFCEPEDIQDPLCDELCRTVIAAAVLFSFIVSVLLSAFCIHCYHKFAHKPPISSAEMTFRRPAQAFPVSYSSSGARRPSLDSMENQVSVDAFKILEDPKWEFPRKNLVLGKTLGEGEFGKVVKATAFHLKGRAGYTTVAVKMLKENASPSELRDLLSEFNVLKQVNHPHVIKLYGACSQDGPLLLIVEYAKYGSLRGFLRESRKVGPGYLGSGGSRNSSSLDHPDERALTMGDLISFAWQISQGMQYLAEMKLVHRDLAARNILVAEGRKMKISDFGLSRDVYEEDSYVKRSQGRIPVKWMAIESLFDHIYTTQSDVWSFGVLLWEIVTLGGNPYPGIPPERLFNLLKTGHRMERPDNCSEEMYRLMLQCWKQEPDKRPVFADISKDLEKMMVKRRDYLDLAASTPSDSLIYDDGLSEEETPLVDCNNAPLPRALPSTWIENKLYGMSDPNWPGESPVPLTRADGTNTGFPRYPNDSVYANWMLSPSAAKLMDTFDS

For the molecule `CCn1ncc2c1C(C)CC(Nc1nc3c(-c4cc(F)c(F)c(F)c4)cccn3n1)C2` (stereo not drawn) [Example 49, (1-Ethyl-7-methyl-4,5,6,7-tetrahydro-1H-indazol-5-yl)-[8-(3,4,5-trifluoro-phenyl)-[1,2,4]triazolo[1,5-a]pyridine-2-yl]-amine], the inhibition at 10 µM on FLT4 (VEGFR3) (setting [1]) was < 40%; on FLT4 (VEGFR3) (setting [2]), 33%; at LYN B (setting [3]) it was < 40%; on LYN B (setting [4]), 25%; at PTK2 (FAK) (setting [5]), < 40%; at PTK2 (FAK) (setting [6]) it was 32%. The results for the inhibition at 10 µM on RET (setting [7]) and at RET (setting [8]) were < 40% and 22%, respectively.
Turning to `CC1(C)NC(=O)c2ccc(Nc3nc4c(-c5cccc(F)c5)cccn4n3)cc21` [Cpd. 302 in WO09155551, reference compound], the inhibition at 10 µM at FLT4 (VEGFR3) (setting [1]) was > 80%; on FLT4 (VEGFR3) (read-out: % Inhibition mean), 96%; on LYN B (setting [3]), > 80%; on LYN B (read-out: % Inhibition mean) it was 97%; on PTK2 (FAK) (setting [5]), > 80%; at PTK2 (FAK) (read-out: % Inhibition mean), 86%. Moreover, the inhibition at 10 µM on RET (setting [7]) was > 80%; at RET (read-out: % Inhibition mean), 98%.
With `CCn1ncc2c1CCC(Nc1nc3c(-c4cccnc4OC)cccn3n1)C2` (stereo not drawn) [Example 69, (1-Ethyl-4,5,6,7-tetrahydro-1H-indazol-5-yl)-[8-(2-methoxy-pyridin-3-yl)-[1,2,4]triazolo[1,5-a]pyridine-2-yl]-amine], the inhibition at 10 µM on FLT4 (VEGFR3) (setting [1]) was < 40%; on FLT4 (VEGFR3) (setting [2]), 16%; on LYN B (setting [3]) it was < 40%; at LYN B (setting [4]), 15%; on PTK2 (FAK) (setting [5]), < 40%; at PTK2 (FAK) (setting [6]), 24%. In addition, the inhibition at 10 µM on RET (setting [7]) is < 40%; at RET (setting [8]), 16%.
For `CC1(C)C(=O)Nc2ccc(Nc3nc4c(-c5cccc(F)c5)cccn4n3)cc21` [Cpd. 263 in WO09155551, reference compound], the inhibition at 10 µM on FLT4 (VEGFR3) (setting [1]) was > 80%; at FLT4 (VEGFR3) (read-out: % Inhibition mean) it was 103%; at LYN B (setting [3]), > 80%; on LYN B (read-out: % Inhibition mean) it was 98%; on PTK2 (FAK) (setting [5]) it was > 80%; on PTK2 (FAK) (read-out: % Inhibition mean), 101%. The values for the inhibition at 10 µM on RET (setting [7]) and at RET (read-out: % Inhibition mean) were > 80% and 96%, respectively.
With `Cc1cc(F)ccc1-c1cccn2nc(NC3CCc4c(cnn4C(C)C)C3)nc12` (stereo not drawn) [Example 44, [8-(4-fluoro-2-methyl-phenyl)-[1,2,4]triazolo[1,5-a]pyridine-2-yl]-(1-isopropyl-4,5,6,7-tetrahydro-1H-indazol-5-yl)-amine], the inhibition at 10 µM is 40 to 80% on FLT4 (VEGFR3) (setting [1]); 43% on FLT4 (VEGFR3) (setting [2]); < 40% on LYN B (setting [3]); 21% on LYN B (setting [4]); < 40% on PTK2 (FAK) (setting [5]); 15% at PTK2 (FAK) (setting [6]). In addition, the inhibition at 10 µM is < 40% on RET (setting [7]) and 20% at RET (setting [8]).
For `CCn1ncc2c1CCC(Nc1nc3c(-c4ccc(F)cc4C)cccn3n1)C2` (stereo not drawn) [Example 42, (1-Ethyl-4,5,6,7-tetrahydro-1H-indazol-5-yl)-[8-(4-fluoro-2-methyl-phenyl)-[1,2,4]triazolo[1,5-a]pyridine-2-yl]-amine], the inhibition at 10 µM at FLT4 (VEGFR3) (setting [1]) was < 40%; at FLT4 (VEGFR3) (setting [2]), 31%; at LYN B (setting [3]), < 40%; on LYN B (setting [4]), 19%; at PTK2 (FAK) (setting [5]), < 40%; at PTK2 (FAK) (setting [6]) it was 26%. For the same molecule, the inhibition at 10 µM on RET (setting [7]) was < 40%; at RET (setting [8]) it was 29%.
As to `CCc1nn(C)c2c1CCC(Nc1nc3c(-c4ccc(F)cc4C)cccn3n1)C2` (stereo not drawn) [Example 54, (3-Ethyl-1-methyl-4,5,6,7-tetrahydro-1H-indazol-6-yl)-[8-(4-fluoro-2-methyl-phenyl)-[1,2,4]triazolo[1,5-a]pyridine-2-yl]-amine], the inhibition at 10 µM at FLT4 (VEGFR3) (setting [1]) is < 40%; on FLT4 (VEGFR3) (setting [2]), 38%; at LYN B (setting [3]), < 40%; at LYN B (setting [4]), 15%; at PTK2 (FAK) (setting [5]), < 40%; at PTK2 (FAK) (setting [6]) it was 14%. For the same molecule, the inhibition at 10 µM was < 40% at RET (setting [7]) and 15% on RET (setting [8]).
Turning to `CCn1ncc2c1CCC(Nc1nc3c(-c4ccc(F)cc4)cccn3n1)C2` (stereo not drawn) [Example 55, (1-Ethyl-4,5,6,7-tetrahydro-1H-indazol-5-yl)-[8-(4-fluoro-phenyl)-[1,2,4]triazolo[1,5-a]pyridine-2-yl]-amine], the inhibition at 10 µM at FLT4 (VEGFR3) (setting [1]) was 40 to 80%; on FLT4 (VEGFR3) (setting [2]), 42%; on LYN B (setting [3]), < 40%; at LYN B (setting [4]), 27%; on PTK2 (FAK) (setting [5]), < 40%; on PTK2 (FAK) (setting [6]), 8%. Moreover, the inhibition at 10 µM on RET (setting [7]) was < 40%; on RET (setting [8]) it was 21%.
As for `CCn1ncc2c1CCC(Nc1nc3c(-c4ccc(C)nc4)cccn3n1)C2` (stereo not drawn) [Example 67, (1-Ethyl-4,5,6,7-tetrahydro-1H-indazol-5-yl)-[8-(6-methyl-pyridin-3-yl)-[1,2,4]triazolo[1,5-a]pyridine-2-yl]-amine], the inhibition at 10 µM on FLT4 (VEGFR3) (setting [1]) was < 40%; on FLT4 (VEGFR3) (setting [2]) it was 33%; on LYN B (setting [3]), < 40%; on LYN B (setting [4]), 20%; at PTK2 (FAK) (setting [5]), < 40%; on PTK2 (FAK) (setting [6]) it was 27%. In addition, the inhibition at 10 µM was < 40% at RET (setting [7]) and 24% at RET (setting [8]).
